Two compounds from patent publication US20230073777A1, “CYCLIC-AMP RESPONSE ELEMENT BINDING PROTEIN (CBP) AND/OR ADENOVIRAL E1A BINDING PROTEIN OF 300 KDA (P300) DEGRADATION COMPOUNDS AND METHODS OF USE” (CULLGEN (SHANGHAI), INC., priority 2019, published 2023) can be followed below.

Entries after “also recorded” stand apart in the source; their conditions may differ. Where only a bound is given, the exact number is not on record here.

One test has as its system VCaP. Kind of test: Cell viability assay, VCaP. It is filed as cell-based. Conditions: Homo sapiens, Prostate carcinoma. The protocol: (§1) Cells were seeded at a density of 5000 cells per well in 96-well assay plates and treated with test compounds following a 12-point 3-fold serial dilution. Three days later, cell viability was determined using the CellTiter-Glo assay kit according to the manufacturer's instructions. The dose-response curves were determined and IC50 values were calculated using the GraphPad Prism software following a nonlinear regression (least squares fit) method.
(§2) The IC50 value of each compound was determined as described in FIG. 4 and calculated using the GraphPad Prism 5.0 software.

The test system of a further test is RPMI-8226. Kind of test: Cell viability assay, RPMI-8226. The following applies: Homo sapiens, RPMI-8226, Multiple myeloma. The format is cell-based. The protocol: as §1, §2
For a further test, the system named is Kasumi-1. Briefly: Cell viability assay, Kasumi-1. It is filed as cell-based. The following applies: Homo sapiens, Kasumi-1, Acute myeloid leukemia. As to the method:
as §1, §2

The test system of a further test is NCI-H929. Kind of test: Cell viability assay, NCI-H929. It is filed as cell-based. Conditions: Homo sapiens, NCI-H929, Multiple Myeloma. As to the method:
as §1, §2

For a further test, the system named is NOMO-1. Briefly: Cell viability assay, NOMO-1. It is filed as cell-based. The following applies: Homo sapiens, NOMO-1, Acute monocytic leukemia. The protocol: as §1, §2
Another test has as its system MEG-01. Briefly: Cell viability assay, MEG-01. The format is cell-based. Conditions: Homo sapiens, MEG-01, Chronic myeloid leukemia. The protocol: as §1, §2
Another test deals with Karpas-422. Kind of test: Cell viability assay, Karpas-422. It is filed as cell-based. Conditions: Homo sapiens, Karpas-422, Diffuse large B-cell lymphoma. The protocol: as §1, §2
The next test deals with HL-60. Kind of test: Cell viability assay, HL-60. It is filed as cell-based. The following applies: Homo sapiens, HL-60, Acute myeloid leukemia. The protocol:
as §1, §2

A further test concerns NCI-H520. Briefly: Cell viability assay, NCI-H520. It is filed as cell-based. The following applies: Homo sapiens, NCI-H520, Non-small cell lung cancer. As to the method: as §1, §2
The next test deals with LNCaP cells. Kind of test: LNCaP cell viability assay (CellTiter-Glo). The following applies: Homo sapiens. It is filed as cell-based. A digest of the protocol: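 Three-day treatment of LNCaP cells (5000 per well) across a 12-point, 3-fold dilution series starting at 10 μM. ATP luminescence (CellTiter-Glo) relative to untreated controls gave dose-response curves fitted nonlinearly for IC50.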
A general note: ATP-based viability assays read luminescence as a measure of living cells.

In the next test the test system is NCI-H1703. Briefly: Cell viability assay, NCI-H1703. The following applies: Homo sapiens, NCI-H1703, Non-small cell lung cancer. The format is cell-based. As to the method:
as §1, §2

A further test has as its system AMO-1. Kind of test: Cell viability assay, AMO-1. The format is cell-based. Conditions: Homo sapiens, AMO1, AMO-1, Multiple Myeloma. As to the method: as §1, §2
In another test the test system is WSU-DLCL2. Briefly: Cell viability assay, WSU-DLCL2. The format is cell-based. The following applies: Homo sapiens, WSUDLCL2, WSU-DLCL2, Diffuse large B-cell lymphoma. As to the method: as §1, §2
A further test has as its system L-363. Kind of test: Cell viability assay, L-363. It is filed as cell-based. The following applies: Homo sapiens, L-363, Multiple myeloma. The protocol: as §1, §2
In another test the test system is MOLM-13. Kind of test: Cell viability assay, MOLM-13. The format is cell-based. The following applies: Homo sapiens, MOLM-13, Acute monocytic leukemia. The protocol: as §1, §2
A further test concerns HEL. Briefly: Cell viability assay, HEL. It is filed as cell-based. The following applies: Homo sapiens, Erythroleukemia. The protocol:
as §1, §2

Another test has as its system MV4; 11. Kind of test: Cell viability assay, MV4; 11. It is filed as cell-based. Conditions: Homo sapiens, 11, Acute monocytic leukemia. The protocol:
as §1, §2

For a further test, the system named is SU-DHL-1. Kind of test: Cell viability assay, SU-DHL-1. The format is cell-based. The following applies: Homo sapiens, SU-DHL-1, Diffuse large B-cell lymphoma. The protocol:
as §1, §2

A further test concerns 22Rv1. Kind of test: Cell viability assay, 22Rv1. Conditions: Homo sapiens, 22Rv1, Prostate carcinoma. The format is cell-based. As to the method: as §1, §2
Another test deals with LK-2. Kind of test: Cell viability assay, LK-2. It is filed as cell-based. The following applies: Homo sapiens, LK-2, Non-small cell lung cancer. As to the method:
as §1, §2

Another test concerns SK-BR-3. Kind of test: Cell viability assay, SK-BR-3. The format is cell-based. The following applies: Homo sapiens, SK-BR-3, breast carcinoma. As to the method:
as §1, §2

The next test has as its system Pfeiffer. Briefly: Cell viability assay, Pfeiffer. The following applies: Homo sapiens, Diffuse large B-cell lymphoma. It is filed as cell-based. The protocol: as §1, §2
A further test relates to MM.1S. Kind of test: Cell viability assay, MM.1S. Conditions: Homo sapiens, MM1.S, Multiple Myeloma. The format is cell-based. As to the method: as §1, §2
Another test has as its system MCF-7. Kind of test: Cell viability assay, MCF-7. It is filed as cell-based. The following applies: Homo sapiens, MCF7, MCF-7, breast carcinoma. The protocol: as §1, §2
Another test concerns MM.1R. Briefly: Cell viability assay, MM.1R. It is filed as cell-based. Conditions: Multiple Myeloma. As to the method: as §1, §2
For test [1], the target named is T1, P300 (Homo sapiens, UniProt Q09472). Briefly: Immunoblotting of P300 protein levels in LNCaP or 22RV1 cells. It is filed as cell-based. More on the design: LNCaP or 22RV1 cells that express CBP/P300 proteins were treated with GNE-781 or the bivalent compounds; endogenous in cells; host or cells: LNCaP (clone FGC) or 22RV1 cells. A digest of the protocol: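 P300/CBP levels quantified by chemiluminescent immunoblot band densitometry, normalized against tubulin or vinculin loading controls. Lysates came from LNCaP or 22RV1 cells exposed to compounds or DMSO vehicle for indicated times.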
T1 sequence (Q09472 whole entry): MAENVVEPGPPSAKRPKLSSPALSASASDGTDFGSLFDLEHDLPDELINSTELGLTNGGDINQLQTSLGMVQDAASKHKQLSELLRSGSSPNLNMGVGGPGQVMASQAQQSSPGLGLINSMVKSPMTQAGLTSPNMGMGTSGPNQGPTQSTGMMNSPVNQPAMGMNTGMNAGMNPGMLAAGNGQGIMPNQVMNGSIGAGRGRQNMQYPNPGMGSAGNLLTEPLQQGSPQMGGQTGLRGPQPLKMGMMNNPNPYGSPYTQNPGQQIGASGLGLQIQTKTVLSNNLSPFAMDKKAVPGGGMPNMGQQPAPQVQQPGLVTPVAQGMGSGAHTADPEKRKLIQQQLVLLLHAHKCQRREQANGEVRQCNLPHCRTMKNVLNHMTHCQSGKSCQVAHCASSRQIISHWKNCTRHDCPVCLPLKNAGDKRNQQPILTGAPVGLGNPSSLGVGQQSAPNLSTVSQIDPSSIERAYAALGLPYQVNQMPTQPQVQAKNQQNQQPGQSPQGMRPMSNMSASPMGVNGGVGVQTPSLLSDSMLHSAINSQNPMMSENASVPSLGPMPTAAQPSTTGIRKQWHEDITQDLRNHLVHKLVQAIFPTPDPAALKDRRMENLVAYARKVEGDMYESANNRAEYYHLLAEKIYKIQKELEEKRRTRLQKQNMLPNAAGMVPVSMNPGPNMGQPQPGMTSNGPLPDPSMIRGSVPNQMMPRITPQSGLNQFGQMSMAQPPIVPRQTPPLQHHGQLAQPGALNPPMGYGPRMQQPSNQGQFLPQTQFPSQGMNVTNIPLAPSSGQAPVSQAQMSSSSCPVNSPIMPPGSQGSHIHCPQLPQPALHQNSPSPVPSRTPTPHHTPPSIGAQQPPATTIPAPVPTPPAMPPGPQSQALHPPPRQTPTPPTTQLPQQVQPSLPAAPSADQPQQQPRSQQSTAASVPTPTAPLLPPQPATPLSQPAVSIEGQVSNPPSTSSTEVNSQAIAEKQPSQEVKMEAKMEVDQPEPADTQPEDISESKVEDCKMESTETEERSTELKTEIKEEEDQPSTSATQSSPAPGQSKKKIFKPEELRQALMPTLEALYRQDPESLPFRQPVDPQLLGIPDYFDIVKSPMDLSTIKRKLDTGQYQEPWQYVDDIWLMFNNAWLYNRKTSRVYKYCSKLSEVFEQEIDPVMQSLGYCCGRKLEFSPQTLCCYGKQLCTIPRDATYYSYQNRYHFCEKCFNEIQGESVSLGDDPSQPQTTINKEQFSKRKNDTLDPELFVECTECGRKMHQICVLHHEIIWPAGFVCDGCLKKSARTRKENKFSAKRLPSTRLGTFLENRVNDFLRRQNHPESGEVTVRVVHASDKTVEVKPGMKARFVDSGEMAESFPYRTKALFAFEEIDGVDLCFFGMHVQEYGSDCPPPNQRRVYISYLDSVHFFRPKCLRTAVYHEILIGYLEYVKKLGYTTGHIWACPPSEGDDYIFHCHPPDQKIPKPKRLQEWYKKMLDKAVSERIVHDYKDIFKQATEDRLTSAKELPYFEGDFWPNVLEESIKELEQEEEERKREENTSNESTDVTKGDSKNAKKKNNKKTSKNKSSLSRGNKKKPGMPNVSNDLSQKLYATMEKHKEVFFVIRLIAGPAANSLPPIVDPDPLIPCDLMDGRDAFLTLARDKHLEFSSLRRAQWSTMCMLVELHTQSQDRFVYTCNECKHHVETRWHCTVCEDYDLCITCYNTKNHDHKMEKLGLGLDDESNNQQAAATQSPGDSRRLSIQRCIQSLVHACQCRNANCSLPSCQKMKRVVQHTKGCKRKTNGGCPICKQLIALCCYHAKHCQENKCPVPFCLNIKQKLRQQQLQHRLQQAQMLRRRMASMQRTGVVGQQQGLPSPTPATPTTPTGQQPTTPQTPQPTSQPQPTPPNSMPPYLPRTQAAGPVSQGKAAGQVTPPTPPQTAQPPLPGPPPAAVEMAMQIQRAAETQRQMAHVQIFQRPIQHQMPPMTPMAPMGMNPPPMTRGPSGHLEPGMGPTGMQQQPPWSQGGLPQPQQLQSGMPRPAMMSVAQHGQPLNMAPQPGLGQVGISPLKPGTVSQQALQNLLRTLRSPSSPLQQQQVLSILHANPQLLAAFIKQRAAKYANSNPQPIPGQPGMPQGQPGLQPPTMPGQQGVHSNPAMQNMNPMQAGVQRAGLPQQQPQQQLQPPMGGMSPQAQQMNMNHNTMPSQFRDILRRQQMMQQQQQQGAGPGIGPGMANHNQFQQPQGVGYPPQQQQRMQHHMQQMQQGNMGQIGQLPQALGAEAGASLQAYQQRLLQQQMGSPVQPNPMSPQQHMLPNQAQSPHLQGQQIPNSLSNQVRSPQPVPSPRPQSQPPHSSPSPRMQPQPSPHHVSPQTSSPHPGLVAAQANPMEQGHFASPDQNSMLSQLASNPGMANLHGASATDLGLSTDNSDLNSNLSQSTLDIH
(In western blotting, separated proteins are transferred to a membrane and probed.)

The target in a further test is T2, CBP (Homo sapiens, UniProt Q92793).
T2 construct: from tissue; host or cells: 22RV1 subcutaneous xenograft tumours in athymic nude mice
T2 sequence (Q92793 whole entry): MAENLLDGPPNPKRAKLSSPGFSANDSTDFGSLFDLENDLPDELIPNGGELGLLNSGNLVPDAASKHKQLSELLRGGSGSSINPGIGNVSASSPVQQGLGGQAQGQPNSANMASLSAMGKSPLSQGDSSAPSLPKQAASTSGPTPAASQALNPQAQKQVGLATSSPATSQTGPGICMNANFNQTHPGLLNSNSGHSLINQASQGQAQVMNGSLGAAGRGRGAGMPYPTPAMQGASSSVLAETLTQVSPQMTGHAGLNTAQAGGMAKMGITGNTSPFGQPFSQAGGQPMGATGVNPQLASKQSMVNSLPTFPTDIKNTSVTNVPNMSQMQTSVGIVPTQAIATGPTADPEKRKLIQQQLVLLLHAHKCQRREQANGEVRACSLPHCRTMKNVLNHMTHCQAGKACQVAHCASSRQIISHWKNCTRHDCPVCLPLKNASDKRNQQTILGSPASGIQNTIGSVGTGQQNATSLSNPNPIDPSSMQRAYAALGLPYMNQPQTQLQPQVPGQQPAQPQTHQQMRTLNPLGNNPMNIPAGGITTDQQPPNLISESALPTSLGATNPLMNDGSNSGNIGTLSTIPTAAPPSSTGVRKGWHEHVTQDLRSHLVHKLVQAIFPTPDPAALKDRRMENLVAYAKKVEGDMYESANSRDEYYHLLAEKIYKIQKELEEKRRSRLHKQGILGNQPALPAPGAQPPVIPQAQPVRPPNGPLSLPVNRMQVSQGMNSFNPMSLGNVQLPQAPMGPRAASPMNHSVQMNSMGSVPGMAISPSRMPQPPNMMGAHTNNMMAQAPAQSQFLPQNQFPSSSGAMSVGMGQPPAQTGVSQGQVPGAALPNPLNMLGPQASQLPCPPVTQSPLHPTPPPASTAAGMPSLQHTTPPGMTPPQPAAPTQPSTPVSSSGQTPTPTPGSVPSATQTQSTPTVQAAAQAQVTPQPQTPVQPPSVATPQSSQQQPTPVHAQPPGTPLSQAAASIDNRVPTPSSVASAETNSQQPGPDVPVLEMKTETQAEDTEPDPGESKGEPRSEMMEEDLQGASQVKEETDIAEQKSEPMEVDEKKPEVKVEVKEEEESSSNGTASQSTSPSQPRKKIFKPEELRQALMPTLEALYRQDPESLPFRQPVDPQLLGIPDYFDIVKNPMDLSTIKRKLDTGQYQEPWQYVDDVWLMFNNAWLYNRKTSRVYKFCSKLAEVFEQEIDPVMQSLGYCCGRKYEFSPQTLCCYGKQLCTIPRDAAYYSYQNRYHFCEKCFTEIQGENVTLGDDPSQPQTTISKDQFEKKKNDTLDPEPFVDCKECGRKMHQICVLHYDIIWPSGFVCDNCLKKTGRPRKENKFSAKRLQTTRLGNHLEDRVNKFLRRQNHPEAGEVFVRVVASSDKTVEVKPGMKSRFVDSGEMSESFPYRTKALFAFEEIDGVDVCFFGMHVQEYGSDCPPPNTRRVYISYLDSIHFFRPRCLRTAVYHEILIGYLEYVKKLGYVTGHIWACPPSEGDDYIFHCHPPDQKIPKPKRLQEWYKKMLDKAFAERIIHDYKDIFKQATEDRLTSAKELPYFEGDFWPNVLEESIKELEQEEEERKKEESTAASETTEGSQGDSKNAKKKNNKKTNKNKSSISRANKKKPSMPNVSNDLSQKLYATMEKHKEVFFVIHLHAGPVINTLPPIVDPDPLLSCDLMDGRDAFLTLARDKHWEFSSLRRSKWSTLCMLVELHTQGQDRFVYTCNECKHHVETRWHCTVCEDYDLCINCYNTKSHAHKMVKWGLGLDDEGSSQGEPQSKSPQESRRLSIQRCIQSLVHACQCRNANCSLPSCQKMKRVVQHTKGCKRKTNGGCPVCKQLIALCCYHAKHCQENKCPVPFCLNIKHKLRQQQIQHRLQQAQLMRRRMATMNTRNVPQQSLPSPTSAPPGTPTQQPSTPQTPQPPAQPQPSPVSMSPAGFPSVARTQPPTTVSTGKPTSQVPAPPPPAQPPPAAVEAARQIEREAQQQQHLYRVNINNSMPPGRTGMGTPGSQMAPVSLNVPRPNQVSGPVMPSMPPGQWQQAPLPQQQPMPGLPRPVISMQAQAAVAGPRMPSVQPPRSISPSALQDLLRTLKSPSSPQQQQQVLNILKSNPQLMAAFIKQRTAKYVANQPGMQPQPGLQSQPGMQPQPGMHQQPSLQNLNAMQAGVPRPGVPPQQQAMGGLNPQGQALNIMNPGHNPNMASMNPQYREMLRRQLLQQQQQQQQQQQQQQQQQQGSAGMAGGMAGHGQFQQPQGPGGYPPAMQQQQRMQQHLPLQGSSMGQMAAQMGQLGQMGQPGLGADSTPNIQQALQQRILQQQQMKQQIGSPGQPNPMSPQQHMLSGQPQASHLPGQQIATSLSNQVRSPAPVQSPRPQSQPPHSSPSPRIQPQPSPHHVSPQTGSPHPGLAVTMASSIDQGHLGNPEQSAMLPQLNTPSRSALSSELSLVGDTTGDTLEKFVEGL
Briefly: Pharmacodynamic study, CBP in 22RV1 subcutaneous xenograft tumors. It is filed as in vivo, Athymic nude mice. Conditions: single dose 40 mg/kg, i.p. or p.o., six hours after administration (FIG. 9). The protocol: (§3) In addition to cultured cells, athymic nude mice bearing 22RV1 subcutaneous xenograft tumors at the right flank were intraperitoneally or orally treated with 40 mg/kg bivalent compounds. Six hours after drug administration, animals were sacrificed for immunoblotting of P300 and CBP in homogenized xenograft tumor masses. […] Moreover, ICR mice were orally treated with 40 mg/kg bivalent compounds. Six hours after drug administration, animals were sacrificed for immunoblotting of CBP in homogenized lung tissues.
(§4) Athymic nude mice bearing 22RV1 subcutaneous xenograft tumors at the right flank were intraperitoneally or orally treated with selected bivalent compounds at 40 mg/kg. Six hours after drug administration, animals were sacrificed, and xenograft tumors were collected for immunoblotting of P300 and CBP.
(§5) All animal experiments were performed under protocols approved by the Institutional Animal Care and Use Committee (IACUC) of Cullgen. Athymic nude mice (male, 5-weeks old) received 5 million 22RV1 cells subcutaneously inoculated at the right flank site. Twenty days following inoculation, tumors were approximately 500 mm^3 in size. Tumor-bearing mice were treated intraperitoneally or via oral gavage with vehicle or bivalent compounds at indicated doses. 6 hours after drug administration, animals were sacrificed, tumors were resected. Small chunks of tumors were homogenized for immunoblotting of P300/CBP and other proteins as indicated. Alternatively, ICR mice (male, 5-weeks old) were treated via oral gavage with vehicle or bivalent compounds at indicated doses. 6 hours after drug administration, animals were sacrificed, lung tissues were resected. Small chunks of lung tissues were homogenized for immunoblotting of CBP and other proteins as indicated.

Test [2] deals with T1, P300. Briefly: Pharmacodynamic study, P300 in 22RV1 subcutaneous xenograft tumors. It is filed as in vivo, Athymic nude mice. More on the design: from tissue; host or cells: 22RV1 subcutaneous xenograft tumours in athymic nude mice. The following applies: single dose 40 mg/kg, i.p. or p.o., six hours after administration (FIG. 9). The protocol: as §3, §4, §5
The next test has as its system P300/CBP. Briefly: Immunoblotting of P300/CBP protein levels in LNCaP or 22RV1 cells. It is filed as cell-based. The following applies: LNCaP cells, 10 nM single dose (FIG. 8). As to the method: Specific exemplary bivalent compounds were characterized in LNCaP or 22RV1 cells. LNCaP or 22RV1 cells that express CBP/P300 proteins were treated with GNE-781 or the bivalent compounds disclosed herein (P-001 to P-174) for indicated hours. Cells were collected, lysed and subject to immunoblotting using an antibody specific to P300 or CBP proteins. Tubulin or vinculin was included as the loading control. DMSO was used as the negative control.
Cultured cells or tissue chunks were washed with cold PBS once and lysed in cold RIPA buffer supplemented with protease inhibitors and phosphatase inhibitors (Beyotime Biotechnology). The solutions were then incubated at 4° C. for 30 minutes with gentle agitation to fully lyse cells. Cell lysates were centrifuged at 13,000 rpm for 10 minutes at 4° C. and pellets were discarded. Total protein concentrations in the lysates were determined by BCA assays (Beyotime Biotechnology). Cell lysates were mixed with Laemmli loading buffer to 1× and heated at 99° C. for 5 min. Proteins were resolved on SDS-PAGE and visualized by chemiluminescence. Images were taken by a ChemiDoc MP Imaging system (Bio-Rad). Protein bands were quantitated using the accompanied software provided by Bio-Rad.

In the case of `CNC(=O)N1CCc2c(c(N3CCCc4cc(-c5cnn(C)c5)c(C(F)F)cc43)nn2C2CCOCC2)C1` [GNE-781, reference compound], the IC50 (commonly the point on the concentration scale where inhibition reaches its midpoint) is 723 nM in the test with VCaP; 10.3 nM in the test with RPMI-8226; 346 nM with Kasumi-1; 15.6 nM in the test with NCI-H929; above 10000 nM with NOMO-1; above 10000 nM in the test on MEG-01. Further, the IC50 in the test with Karpas-422 was above 10000 nM; in the test with HL-60 it was above 10000 nM; in the test on NCI-H520 it was 5380 nM; in the test on LNCaP cells (cell viability, LNCaP clone FGC, Prostate carcinoma (Table 4)), 4170 nM; in the test with NCI-H1703, above 10000 nM; with AMO-1, 138 nM. Besides, the IC50 with WSU-DLCL2 was 14 nM; in the test on L-363, above 1000 nM; with MOLM-13, above 10000 nM; in the test with HEL it was above 10000 nM; with MV4; 11, above 10000 nM; in the test with SU-DHL-1, above 1000 nM. Also, the IC50 was 1680 nM in the test with 22Rv1; 2710 nM in the test with LK-2; above 10000 nM in the test on SK-BR-3; 132 nM with Pfeiffer; 12.8 nM in the test with MM.1S; 2390 nM in the test on MCF-7. Besides, the IC50 in the test with MM.1R was 13.2 nM.

As to `CC(=O)N1CCc2c(c(N3CCCc4cc(-c5cnn(C)c5)c(C(F)F)cc43)nn2C2CCN(C(=O)CCCCCNc3cccc4c3C(=O)N(C3CCC(=O)NC3=O)C4=O)CC2)C1` (stereo not shown) [P-100, 4-((6-(4-(5-acetyl-3-(7-(difluoromethyl)-6-(1-methyl-1H-pyrazol-4-yl)-3,4-dihydroquinolin-1(2H)-yl)-4,5,6,7-tetrahydro-1H-pyrazolo[4,3-c]pyridin-1-yl)piperidin-1-yl)-6-oxohexyl)amino)-2-(2,6-dioxopiperidin-3-yl)isoindoline-1,3-dione], the “P300 protein levels, dependence on interaction with cereblon” value at P300 [1] (LNCaP or 22RV1 cells, various concentrations (FIG. 7)) is “reduced P300 protein levels in a concentration-dependent manner”. Besides, the inhibition at 0.01 µM at P300 [1] (percentage of inhibition of p300 at 10 nM (Table 3), read-out: Degradation (10 nM)) is above 80%. In addition, the “CBP protein levels in 22RV1 xenograft tumors” value on CBP was “significantly reducing”. Moreover, at P300 [2], the “P300 protein levels in 22RV1 xenograft tumors” value was “significantly reducing”. The compound further showed an IC50 with LNCaP cells (72 h, LNCaP prostate cancer cell viability inhibition, 3 days, CellTiter-Glo (Table 3)) of 0.9 nM. Moreover, the “degradation of P300/CBP in combination with pomalidomide, MG-132, Bortezomib or MLN4924” value in the test with P300/CBP is recorded as “compromised; also recorded: neutralized”.
